From patent US20240067631A1, “PYRAZOLE DERIVATIVES USEFUL AS NAMPT MODULATORS” (Cytokinetics, Inc., priority 2020, published 2024)

Biological target: human NAMPT (Homo sapiens (Human), UniProt P43490)
Assay: Human recombinant enzyme assay (NMN fluorescence biochemical assay)
Settings: 6 nM human NAMPT, 60 min; for AC1.4 Human: concentration of compound that generates 40% higher activity over basal; for EC50: concentration that gives half-maximal activation
Description: Compounds described herein were assayed for their ability to stimulate the synthesis of nicotinamide mononucleotide (NMN) by the enzyme NAMPT. The human recombinant enzyme assay measures the activation of the enzyme activity by compounds using recombinant enzyme and substrates in a buffered cell-free system. The assay conditions closely mimic cellular environments. Dose responses were measured using an assay to detect the formation of nicotinamide mono-nucleotide. All experiments were performed in the 384-well format. Generally, 0.5 μL of DMSO containing varying concentrations of the test compound was mixed with 10 μL of the enzyme reagent solution. Enzyme reactions were initiated with the addition of 10 μL of a solution containing the substrates. The final assay conditions were as follows: 6 nM human NAMPT, 2.5 mM ATP, […] in 50 mM HEPES, pH 7.2, 1 mM DTT, 1 mM CHAPS 50 mM NaCl, 100 mM MgCl2. Following an incubation of 60 min at ambient temperature, 10 μL of 20% acetophenone in DMSO was added, followed by 10 μL of 2 M KOH and 40 μL of formic acid. The plates were read for fluorescence (Excitation/Emission=355 nm/460 nm) using an EnVision plate reader after 40 mins of incubation at ambient temperature. The potency measurements for compounds, are quantified and represented as AC1.4 (the concentration of compounds that generates 40% higher activity over basal) and EC50 (concentration of the compound that gives half-maximal activation).

Chain of human NAMPT (P43490 whole entry): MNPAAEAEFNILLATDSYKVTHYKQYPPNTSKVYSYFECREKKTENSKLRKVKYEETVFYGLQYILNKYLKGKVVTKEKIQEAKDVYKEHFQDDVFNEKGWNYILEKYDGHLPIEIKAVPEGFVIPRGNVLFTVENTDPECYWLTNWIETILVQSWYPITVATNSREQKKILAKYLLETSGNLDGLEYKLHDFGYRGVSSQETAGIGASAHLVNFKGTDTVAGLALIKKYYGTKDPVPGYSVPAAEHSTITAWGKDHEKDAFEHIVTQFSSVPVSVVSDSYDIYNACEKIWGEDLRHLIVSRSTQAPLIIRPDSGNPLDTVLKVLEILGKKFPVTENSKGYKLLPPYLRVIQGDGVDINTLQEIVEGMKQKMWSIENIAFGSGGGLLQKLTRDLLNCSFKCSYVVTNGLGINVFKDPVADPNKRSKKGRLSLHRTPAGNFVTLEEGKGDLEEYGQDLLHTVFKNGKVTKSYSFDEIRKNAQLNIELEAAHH

| Structure (SMILES) | AC1.4 Human | EC50 |
| --- | --- | --- |
| Cc1nc(C(=O)N2CC(O)(C(F)(F)F)C2)nc(NCCc2cn[nH]c2)c1C [Compound 48, (4-((2-(1H-pyrazol-4-yl)ethyl)amino)-5,6-dimethylpyrimidin-2-yl)(3-hydroxy-3-(trifluoromethyl)azetidin-1-yl)methanone] | 0.2925 µM | 6840 nM |
| Cc1nc(C(=O)N(C)[C@H](C)c2ccccc2Cl)nc(NCCc2cn[nH]c2)c1C [Compound 53, (R)-4-((2-(1H-pyrazol-4-yl)ethyl)amino)-N-(1-(2-chlorophenyl)ethyl)-N,5,6-trimethylpyrimidine-2-carboxamide] | 0.3335 µM | 2600 nM |
| Cc1nc(C(=O)NCc2cccc(F)n2)nc(NCCc2cn[nH]c2)c1C [Compound 55, 4-((2-(1H-pyrazol-4-yl)ethyl)amino)-N-((6-fluoropyridin-2-yl)methyl)-5,6-dimethylpyrimidine-2-carboxamide] | 0.375 µM | 4680 nM |
| Cc1nc(C(=O)NCC2CN(C(=O)c3ccccc3)C2)nc(NCCc2cn[nH]c2)c1C [Compound 57, 4-((2-(1H-pyrazol-4-yl)ethyl)amino)-N-((1-benzoylazetidin-3-yl)methyl)-5,6-dimethylpyrimidine-2-carboxamide] | 0.396 µM | 2880 nM |
| Cc1nc(C(=O)N[C@@H](C)c2ccccc2)nc(NCCc2cn[nH]c2)c1C [Compound 59, (S)-4-((2-(1H-pyrazol-4-yl)ethyl)amino)-5,6-dimethyl-N-(1-phenylethyl)pyrimidine-2-carboxamide] | 0.4045 µM | 3080 nM |
| Cc1nc(C(=O)N2CC(O)(Cc3ccccc3)C2)nc(NCCc2cn[nH]c2)c1C [Compound 60] | 0.4085 µM | 3750 nM |
| Cc1nc(C(=O)N2C[C@@H](C)OC[C@H]2c2ccccc2)nc(NCCc2cn[nH]c2)c1C [Compound 62, (4-((2-(1H-pyrazol-4-yl)ethyl)amino)-5,6-dimethylpyrimidin-2-yl)((2R,5R)-2-methyl-5-phenylmorpholino)methanone] | 0.4295 µM | 3210 nM |
| Cc1nc(C(=O)N2CCC(c3ccccc3F)C2)nc(NCCc2cn[nH]c2)c1C (stereo not shown) [Compound 66, (4-((2-(1H-pyrazol-4-yl)ethyl)amino)-5,6-dimethylpyrimidin-2-yl)(3-(2-fluorophenyl)pyrrolidin-1-yl)methanone] | 4.5565 µM | 16300 nM |
| Cc1nc(C(=O)N2CCOCC2c2ccc(F)cc2)nc(NCCc2cn[nH]c2)c1C (stereo not shown) [Compound 67, (4-((2-(1H-pyrazol-4-yl)ethyl)amino)-5,6-dimethylpyrimidin-2-yl)(3-(4-fluorophenyl)morpholino)methanone] | 0.505 µM | 3860 nM |
| Cc1nc(C(=O)NC(C)(C)c2ccccn2)nc(NCCc2cn[nH]c2)c1C [Compound 69, 4-((2-(1H-pyrazol-4-yl)ethyl)amino)-5,6-dimethyl-N-(2-(pyridin-2-yl)propan-2-yl)pyrimidine-2-carboxamide] | 0.5395 µM | 4180 nM |
| Cc1nc(C(=O)NC(C)c2ccc(Cl)s2)nc(NCCc2cn[nH]c2)c1C (stereo not shown) [Compound 70, 4-((2-(1H-pyrazol-4-yl)ethyl)amino)-N-(1-(5-chlorothiophen-2-yl)ethyl)-5,6-dimethylpyrimidine-2-carboxamide] | 0.5795 µM | 3120 nM |
| Cc1nc(C(=O)N2CCCC2Cc2ccccc2)nc(NCCc2cn[nH]c2)c1C (stereo not shown) [Compound 71, (4-((2-(1H-pyrazol-4-yl)ethyl)amino)-5,6-dimethylpyrimidin-2-yl)(2-benzylpyrrolidin-1-yl)methanone] | 0.5835 µM | 6070 nM |
| Cc1nc(C(=O)N2CCOC[C@@H]2Cc2ccccc2)nc(NCCc2cn[nH]c2)c1C [Compound 72, (S)-(4-((2-(1H-pyrazol-4-yl)ethyl)amino)-5,6-dimethylpyrimidin-2-yl)(3-benzylmorpholino)methanone] | 0.625 µM | 3530 nM |
| Cc1nc(C(=O)N[C@@H](C)c2cccc(F)n2)nc(NCCc2cn[nH]c2)c1C [Compound 73, (S)-4-((2-(1H-pyrazol-4-yl)ethyl)amino)-N-(1-(6-fluoropyridin-2-yl)ethyl)-5,6-dimethylpyrimidine-2-carboxamide] | 0.6455 µM | 3240 nM |
| Cc1nc(C(=O)NCC2(c3cccc(F)c3)COC2)nc(NCCc2cn[nH]c2)c1C [Compound 74, 4-((2-(1H-pyrazol-4-yl)ethyl)amino)-N-((3-(3-fluorophenyl)oxetan-3-yl)methyl)-5,6-dimethylpyrimidine-2-carboxamide] | 0.715 µM | 8010 nM |
| Cc1nc(C(=O)N[C@H](C)c2ccco2)nc(NCCc2cn[nH]c2)c1C [Compound 75, (R)-4-((2-(1H-pyrazol-4-yl)ethyl)amino)-N-(1-(furan-2-yl)ethyl)-5,6-dimethylpyrimidine-2-carboxamide] | 0.7725 µM | 2620 nM |
| Cc1nc(C(=O)N2CC(c3ccccc3)C2)nc(NCCc2cn[nH]c2)c1C [Compound 76, (4-((2-(1H-pyrazol-4-yl)ethyl)amino)-5,6-dimethylpyrimidin-2-yl)(3-phenylazetidin-1-yl)methanone] | 0.773 µM | 6830 nM |

Now those with a lower EC50, led by results:

| AC1.4 Human | EC50 | Structure (SMILES) |
| --- | --- | --- |
| 0.35 µM | 2370 nM | Cc1nc(C(=O)N2CCC[C@@H]2c2ccccc2F)nc(NCCc2cn[nH]c2)c1C [Compound 54, (R)-(4-((2-(1H-pyrazol-4-yl)ethyl)amino)-5,6-dimethylpyrimidin-2-yl)(2-(2-fluorophenyl)pyrrolidin-1-yl)methanone] |
| 0.4315 µM | 2280 nM | Cc1nc(C(=O)N2CCOC[C@@H]2c2ccccc2)nc(NCCc2cn[nH]c2)c1C [Compound 63, (S)-(4-((2-(1H-pyrazol-4-yl)ethyl)amino)-5,6-dimethylpyrimidin-2-yl)(3-phenylmorpholino)methanone] |
| 0.458 µM | 2160 nM | Cc1nc(C(=O)N2CCOC[C@H]2Cc2ccccc2)nc(NCCc2cn[nH]c2)c1C [Compound 64, (R)-(4-((2-(1H-pyrazol-4-yl)ethyl)amino)-5,6-dimethylpyrimidin-2-yl)(3-benzylmorpholino)methanone] |
| 0.409 µM | 2110 nM | Cc1nc(C(=O)N2CC[C@@H](c3ccccc3)C2)nc(NCCc2cn[nH]c2)c1C [Compound 61, (S)-(4-((2-(1H-pyrazol-4-yl)ethyl)amino)-5,6-dimethylpyrimidin-2-yl)(3-phenylpyrrolidin-1-yl)methanone] |
| 0.3055 µM | 2100 nM | COC[C@H](NC(=O)c1nc(C)c(C)c(NCCc2cn[nH]c2)n1)c1cccc(F)c1 [Compound 49, (R)-4-((2-(1H-pyrazol-4-yl)ethyl)amino)-N-(1-(3-fluorophenyl)-2-methoxyethyl)-5,6-dimethylpyrimidine-2-carboxamide] |
| 0.311 µM | 2080 nM | Cc1nc(C(=O)NCCc2ccccc2)nc(NCCc2cn[nH]c2)c1C [Compound 50, 4-((2-(1H-pyrazol-4-yl)ethyl)amino)-5,6-dimethyl-N-phenethylpyrimidine-2-carboxamide] |
| 0.327 µM | 1880 nM | Cc1nc(C(=O)N2CC(O)(c3cccc(F)c3F)C2)nc(NCCc2cn[nH]c2)c1C [Compound 51, (4-((2-(1H-pyrazol-4-yl)ethyl)amino)-5,6-dimethylpyrimidin-2-yl)(3-(2,3-difluorophenyl)-3-hydroxyazetidin-1-yl)methanone] |
| 0.3305 µM | 1780 nM | Cc1nc(C(=O)N2CC[C@H](c3ccccc3)C2)nc(NCCc2cn[nH]c2)c1C [Compound 52, (R)-(4-((2-(1H-pyrazol-4-yl)ethyl)amino)-5,6-dimethylpyrimidin-2-yl)(3-phenylpyrrolidin-1-yl)methanone] |
| 0.4805 µM | 1690 nM | Cc1nc(C(=O)N[C@H](C)c2coc3ccccc23)nc(NCCc2cn[nH]c2)c1C [Compound 65, (R)-4-((2-(1H-pyrazol-4-yl)ethyl)amino)-N-(1-(benzofuran-3-yl)ethyl)-5,6-dimethylpyrimidine-2-carboxamide] |
| 0.563 µM | 1640 nM | COc1cccc(C(C)NC(=O)c2nc(C)c(C)c(NCCc3cn[nH]c3)n2)n1 (stereo not shown) [Compound 68, 4-((2-(1H-pyrazol-4-yl)ethyl)amino)-N-(1-(6-methoxypyridin-2-yl)ethyl)-5,6-dimethylpyrimidine-2-carboxamide] |
| 0.439 µM | 1370 nM | Cc1nc(C(=O)N[C@H](C)c2ncccc2F)nc(NCCc2cn[nH]c2)c1C [Compound 56, (R)-4-((2-(1H-pyrazol-4-yl)ethyl)amino)-N-(1-(3-fluoropyridin-2-yl)ethyl)-5,6-dimethylpyrimidine-2-carboxamide] |
| 0.406 µM | 788 nM | Cc1nc(C(=O)NCc2coc3ccccc23)nc(NCCc2cn[nH]c2)c1C [Compound 58, 4-((2-(1H-pyrazol-4-yl)ethyl)amino)-N-(benzofuran-3-ylmethyl)-5,6-dimethylpyrimidine-2-carboxamide] |
